Some test systems named below: SK-OV-3 ovarian; A498 renal; SR leukemia; SK-MEL-28 melanoma; RPMI-8226 leukemia; U251 CNS; ACHN renal; LOX IMVI melanoma; NCI-H226 lung; OVCAR-4 ovarian.
Common to all, as to test: growth of human tumour cells (NCI), 48 h

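Five concentrations, 48 hours, 96-well plates. At the GI50, growth is halved. The concentration for full growth arrest is given as TGI.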

From PubChem BioAssay (NCI) come the findings set out here.

For `CC1(C)OC2C(=O)C=C(COCc3ccccc3)C2O1` (configuration not stated), the TGI with SK-OV-3 ovarian is 22 µM; in the assay on A498 renal, greater than 100 µM; in the assay with SR leukemia, greater than 100 µM; with SK-MEL-28 melanoma, 95.4 µM; in the assay on RPMI-8226 leukemia, greater than 100 µM; with U251 CNS, 90 µM. The TGI with ACHN renal is greater than 100 µM; in the assay on LOX IMVI melanoma, 53.5 µM; in the assay on NCI-H226 lung, 61.5 µM.

In the case of `CC1(C)C2CCC13CS(=O)(=O)N1O[C@]13C(=O)O2` (some centres not stated), the TGI in the assay on A498 renal, with SR leukemia, in the assay with SK-MEL-28 melanoma, in the assay with OVCAR-4 ovarian, in the assay on RPMI-8226 leukemia and in the assay with U251 CNS was greater than 100 µM throughout. Further, the TGI in the assay with ACHN renal, in the assay with LOX IMVI melanoma and in the assay on NCI-H226 lung was greater than 100 µM in each case.

`O=C(O)/C(Cl)=C(\Cl)C(=O)Nc1ccc(Cl)c(Cl)c1Cl`: the TGI in the assay with SK-OV-3 ovarian amounted to 35.2 µM; in the assay on A498 renal it was 95.6 µM; with SR leukemia, 70.1 µM; in the assay with SK-MEL-28 melanoma it was 42.7 µM; in the assay with OVCAR-4 ovarian, 33.6 µM; in the assay on RPMI-8226 leukemia it was 88.3 µM. Also, the TGI with U251 CNS amounted to 34.3 µM; in the assay on ACHN renal it was 32 µM; in the assay on LOX IMVI melanoma, 31.2 µM; in the assay with NCI-H226 lung, 35.5 µM.

For the compound `Cn1c2ccccc2n2c(=O)c3c(c(C#N)c12)CCCC3`, the TGI in the assay with SK-OV-3 ovarian, in the assay on A498 renal, with SR leukemia, with SK-MEL-28 melanoma, in the assay on OVCAR-4 ovarian and in the assay on RPMI-8226 leukemia was greater than 100 µM throughout. Moreover, the TGI with U251 CNS, in the assay on ACHN renal, in the assay with LOX IMVI melanoma and with NCI-H226 lung was greater than 100 µM in each case.

Take `C[CH2][Pb]([CH2]C)([CH2]C)[O]C(=O)c1ccc2ccccc2n1`: the GI50 in the assay on SK-OV-3 ovarian was greater than 10 µM; in the assay with A498 renal, greater than 10000 nM; in the assay on SR leukemia it was greater than 10 µM; in the assay on SK-MEL-28 melanoma, greater than 10 µM; with OVCAR-4 ovarian it was greater than 10 µM; in the assay on RPMI-8226 leukemia it was greater than 10 µM. The GI50 with U251 CNS is greater than 10000 nM; in the assay on ACHN renal it was greater than 10000 nM; with LOX IMVI melanoma, greater than 10000 nM; in the assay on NCI-H226 lung, greater than 10 µM. The TGI in the assay on SK-OV-3 ovarian, with A498 renal, with SR leukemia, with SK-MEL-28 melanoma, in the assay on OVCAR-4 ovarian and in the assay on RPMI-8226 leukemia was greater than 10 µM in each case. For the same compound, the TGI with U251 CNS, with ACHN renal, in the assay with LOX IMVI melanoma and with NCI-H226 lung was greater than 10 µM throughout.

Take `CSC(=S)N/N=C(\C)c1cccc(C)n1`: the TGI in the assay with SK-OV-3 ovarian is 10.7 µM; with A498 renal it was 10.5 µM; in the assay on SR leukemia, greater than 65.6 µM; with SK-MEL-28 melanoma it was 63.5 µM; with OVCAR-4 ovarian it was 19.5 µM; in the assay on RPMI-8226 leukemia it was 1.51 µM. The TGI in the assay with U251 CNS came to 33.8 µM; with ACHN renal, 3.48 µM; with LOX IMVI melanoma, 15.1 µM; in the assay on NCI-H226 lung, 10.7 µM.

Consider `CCCCn1c(=O)c2c(nc3n2CCCN3CCc2ccc(OCC(=O)NCCN(CC)CC)cc2)n(CCCC)c1=O`, for which the GI50 in the assay with SK-OV-3 ovarian is 5.93 µM; in the assay with A498 renal it was 540 nM; with SR leukemia it was 1.14 µM; in the assay on SK-MEL-28 melanoma, 0.98 µM; in the assay on OVCAR-4 ovarian it was 2.61 µM; in the assay on RPMI-8226 leukemia, 1.13 µM. Besides, the GI50 with U251 CNS is 2140 nM; in the assay with ACHN renal, 2980 nM; in the assay with LOX IMVI melanoma, 929 nM; in the assay on NCI-H226 lung, 7.13 µM. Besides, the TGI was 12.6 µM in the assay on SK-OV-3 ovarian; 2.51 µM in the assay on A498 renal; 3.02 µM in the assay on SR leukemia; 2.04 µM in the assay on SK-MEL-28 melanoma; 9.76 µM with OVCAR-4 ovarian; 2.9 µM in the assay on RPMI-8226 leukemia. Also, the TGI with U251 CNS was 8.1 µM; with ACHN renal it was 10.6 µM; in the assay on LOX IMVI melanoma it was 1.99 µM; in the assay with NCI-H226 lung, 16.9 µM.

For the compound `CN(CCCCCl)P(=O)(OCCS(=O)(=O)CC(NC(=O)CCC(N)C(=O)O)C(=O)NC(C(=O)O)c1ccccc1)OCC1OC(n2cc(F)c(=O)[nH]c2=O)CC1O` (configuration not stated), the GI50 in the assay with SK-OV-3 ovarian is 41.3 µM; in the assay on SK-MEL-28 melanoma, 15.2 µM; with OVCAR-4 ovarian it was 8.27 µM; in the assay with U251 CNS, less than 17.1 nM; in the assay on ACHN renal, less than 10 nM; in the assay with LOX IMVI melanoma, less than 12.7 nM. Besides, the GI50 in the assay on NCI-H226 lung was 0.628 µM. In addition, the TGI with SK-OV-3 ovarian was greater than 100 µM; with A498 renal, greater than 100 µM; in the assay with SR leukemia, greater than 90.9 µM; in the assay with SK-MEL-28 melanoma, greater than 100 µM; in the assay on OVCAR-4 ovarian, greater than 100 µM; with RPMI-8226 leukemia, 1.48 µM. In addition, the TGI in the assay with U251 CNS was greater than 41.6 µM; in the assay on ACHN renal, 14 µM; in the assay on LOX IMVI melanoma it was 52.2 µM; in the assay on NCI-H226 lung, greater than 100 µM.

For the compound `CN1COc2c(n(C)c(=O)[nH]c2=O)C1`, the TGI in the assay with SK-OV-3 ovarian was greater than 100 µM; in the assay with A498 renal, greater than 100 µM; in the assay on SR leukemia, greater than 80.6 µM; in the assay with SK-MEL-28 melanoma, greater than 100 µM; in the assay on OVCAR-4 ovarian, greater than 100 µM; in the assay on RPMI-8226 leukemia it was 90.8 µM. For the same compound, the TGI in the assay on U251 CNS, in the assay on ACHN renal and with NCI-H226 lung was greater than 100 µM throughout.

For the compound `C[C@@H]1O[C@@H](OC[C@H]2O[C@@H](OCCc3ccc(O)c(O)c3)[C@H](O)[C@@H](O)[C@@H]2OC(=O)/C=C/c2ccc(O)c(O)c2)[C@H](O)[C@H](O)[C@H]1O`, the GI50 in the assay with SK-OV-3 ovarian is greater than 100 µM; with SR leukemia, 93.8 µM; in the assay on SK-MEL-28 melanoma it was greater than 100 µM; in the assay with OVCAR-4 ovarian, greater than 100 µM; with RPMI-8226 leukemia, 12.2 µM; in the assay with U251 CNS, greater than 100000 nM. The GI50 with ACHN renal is greater than 100000 nM; in the assay with LOX IMVI melanoma, greater than 100000 nM; with NCI-H226 lung, greater than 100 µM. Further, the TGI in the assay on SK-OV-3 ovarian is greater than 100 µM; with SR leukemia, greater than 100 µM; in the assay on SK-MEL-28 melanoma it was greater than 100 µM; with OVCAR-4 ovarian it was greater than 100 µM; in the assay with RPMI-8226 leukemia, 50.9 µM; in the assay on U251 CNS, greater than 100 µM. Also, the TGI with ACHN renal, with LOX IMVI melanoma and in the assay with NCI-H226 lung was greater than 100 µM each time.
